US20070160725A1, “Use of extracts and compounds of allium-genus plants as preservatives in the food and agri-food industries” (MOUSALA, S., L., priority 2004, published 2007)
Read-outs that look alike come from different tables or passages of the source.

How the values were obtained:
Test in all cases: agar diffusion, inhibition halo
Format in all cases: cell-based
[1] = test system: Aspergillus niger, CECT 2700
Description: (§1) In order to evaluate the antimicrobial activity the agar diffusion technique with cellulose discs of 6 mm in diameter impregnated with the different active ingredient testing doses was used.
(§2) Antifungal capacity was assessed against suspensions of […], harvested from pure cultures of the selected molds and against suspensions of 10^7 cells/ml for the case of yeasts. The culture medium used was the 2% Sabouraud-glucose medium (Merck).
(§3) After incubating the culture dishes inoculated with the different organisms at the corresponding temperatures, the microbial inhibition halos that appeared were measured, and said measurement includes the 6 mm diameter of the cellulose discs.

[2] = test system: Aspergillus terreus, isolated from the environment of the cheese maturation chamber
Description: as §1, §2, §3

[3] = test system: Candida krusei, isolated from cheese
Description: as §1, §2, §3

[4] = test system: Geotrichum candidum CECT 1902
Description: as §1, §2, §3

[5] = test system: Penicillium italicum CECT 2294
Description: as §1, §2, §3

[6] = test system: Penicillium sp, isolated from cheese
Description: as §1, §2, §3

[7] = test system: Bacillus cereus, CECT 1178
Description: as §1
(§4) Antibacterial capacity was assessed against suspensions of 10^6 cells/ml, prepared from pure young cultures of each one of the strains to be tested. The culture medium used was Müller-Hinton medium (Merck).
as §3

[8] = test system: Bacillus subtilis, isolated from paprika
Description: as §1, §4, §3

[9] = test system: Escherichia coli, CECT 515
Description: as §1, §4, §3

[10] = test system: Listeria monocytogenes, ATCC 15313
Description: as §1, §4, §3

[11] = test system: Rhizopus stolonifer CECT 2344
Description: as §1, §2, §3

[12] = test system: Trichoderma aureoviride CECT 20102
Description: as §1, §2, §3

[13] = Penicillium italicum, CECT2294, read-out: inhibition halo diameter
[14] = 1000 ppm (active ingredient, dose in ppm)
[15] = 2000 ppm (active ingredient, dose in ppm)
[16] = 4000 ppm (active ingredient, dose in ppm)
[17] = 6000 ppm (active ingredient, dose in ppm)
[18] = Penicillium italicum, CECT2294, 1000 ppm of commercial product, read-out: inhibition halo diameter
[19] = Penicillium italicum, CECT2294, 2000 ppm of commercial product, read-out: inhibition halo diameter
[20] = Penicillium italicum, CECT2294, 4000 ppm of commercial product, read-out: inhibition halo diameter

C=CCSSC=CC[S+]([O-])CC=C (mixture of isomers) [Ajoene, (E)-(Z)-ajoene]
inhibition halo diameter ([1]; 125 ppm): 11 mm
inhibition halo diameter ([1]; 250 ppm): 13 mm
inhibition halo diameter ([1]; 500 ppm): 24 mm
inhibition halo diameter ([1]; 1000 ppm): 27 mm
inhibition halo diameter ([2]; 125 ppm): 18 mm
inhibition halo diameter ([2]; 250 ppm): 21 mm
inhibition halo diameter ([2]; 500 ppm): 32 mm
inhibition halo diameter ([2]; 1000 ppm): 40 mm
inhibition halo diameter ([3]; 125 ppm): 26 mm
inhibition halo diameter ([3]; 250 ppm): 32 mm
inhibition halo diameter ([3]; 500 ppm): 38 mm
inhibition halo diameter ([3]; 1000 ppm): 42 mm
inhibition halo diameter ([4]; 125 ppm): 14 mm
inhibition halo diameter ([4]; 250 ppm): 20 mm
inhibition halo diameter ([4]; 500 ppm): 26 mm
inhibition halo diameter ([4]; 1000 ppm): 34 mm
zone of inhibition at 125 ppm [5, 13]: 18 mm
zone of inhibition at 250 ppm [5, 13]: 24 mm
zone of inhibition at 500 ppm [5, 13]: 44 mm
zone of inhibition at 1000 ppm [5, 13]: 50 mm
inhibition halo diameter ([6]; 125 ppm): 12 mm
inhibition halo diameter ([6]; 250 ppm): 27 mm
inhibition halo diameter ([6]; 500 ppm): 40 mm
inhibition halo diameter ([6]; 1000 ppm): 40 mm
inhibition halo diameter ([7]; 125 ppm): 18 mm
inhibition halo diameter ([7]; 250 ppm): 24 mm
inhibition halo diameter ([7]; 500 ppm): 30 mm
inhibition halo diameter ([7]; 1000 ppm): 36 mm
inhibition halo diameter ([8]; 125 ppm): 36 mm
inhibition halo diameter ([8]; 250 ppm): 40 mm
inhibition halo diameter ([8]; 500 ppm): 54 mm
inhibition halo diameter ([8]; 1000 ppm): 62 mm
inhibition halo diameter ([9]; 125 ppm): 7 mm
inhibition halo diameter ([9]; 250 ppm): 9 mm
inhibition halo diameter ([9]; 500 ppm): 11 mm
inhibition halo diameter ([9]; 1000 ppm): 13 mm
inhibition halo diameter ([10]; 125 ppm): 16 mm
inhibition halo diameter ([10]; 250 ppm): 18 mm
inhibition halo diameter ([10]; 500 ppm): 20 mm
inhibition halo diameter ([10]; 1000 ppm): 30 mm

C=CC1SC=CCS1 (stereo not drawn) [2-vinyl-4H-1,3-dithiin]
inhibition halo diameter ([1]; 125 ppm): 7 mm
inhibition halo diameter ([1]; 250 ppm): 7 mm
inhibition halo diameter ([1]; 500 ppm): 10 mm
inhibition halo diameter ([1]; 1000 ppm): 15 mm
inhibition halo diameter ([2]; 125 ppm): 0 mm
inhibition halo diameter ([2]; 250 ppm): 0 mm
inhibition halo diameter ([2]; 500 ppm): 6 mm
inhibition halo diameter ([2]; 1000 ppm): 7 mm
inhibition halo diameter ([3]; 125 ppm): 7 mm
inhibition halo diameter ([3]; 250 ppm): 10 mm
inhibition halo diameter ([3]; 500 ppm): 10 mm
inhibition halo diameter ([3]; 1000 ppm): 12 mm
inhibition halo diameter ([4]; 125 ppm): 7 mm
inhibition halo diameter ([4]; 250 ppm): 7 mm
inhibition halo diameter ([4]; 500 ppm): 10 mm
inhibition halo diameter ([4]; 1000 ppm): 15 mm
zone of inhibition at 125 ppm [5, 13]: 0 mm
zone of inhibition at 250 ppm [5, 13]: 0 mm
zone of inhibition at 500 ppm [5, 13]: 8 mm
zone of inhibition at 1000 ppm [5, 13]: 10 mm
inhibition halo diameter ([6]; 125 ppm): 0 mm
inhibition halo diameter ([6]; 250 ppm): 8 mm
inhibition halo diameter ([6]; 500 ppm): 10 mm
inhibition halo diameter ([6]; 1000 ppm): 12 mm
inhibition halo diameter ([7]; 125 ppm): 7 mm
inhibition halo diameter ([7]; 250 ppm): 9 mm
inhibition halo diameter ([7]; 500 ppm): 10 mm
inhibition halo diameter ([7]; 1000 ppm): 12 mm
inhibition halo diameter ([8]; 125 ppm): 7 mm
inhibition halo diameter ([8]; 250 ppm): 10 mm
inhibition halo diameter ([8]; 500 ppm): 13 mm
inhibition halo diameter ([8]; 1000 ppm): 15 mm
inhibition halo diameter ([9]; 125 ppm): 0 mm
inhibition halo diameter ([9]; 250 ppm): 0 mm
inhibition halo diameter ([9]; 500 ppm): 0 mm
inhibition halo diameter ([9]; 1000 ppm): 0 mm
inhibition halo diameter ([10]; 125 ppm): 0 mm
inhibition halo diameter ([10]; 250 ppm): 7 mm
inhibition halo diameter ([10]; 500 ppm): 8 mm
inhibition halo diameter ([10]; 1000 ppm): 10 mm

C=CC1CC=CSS1 (stereo not drawn) [3-vinyl-4H-1,2-dithiin]
inhibition halo diameter ([1]; 125 ppm): 0 mm
inhibition halo diameter ([1]; 250 ppm): 7 mm
inhibition halo diameter ([1]; 500 ppm): 10 mm
inhibition halo diameter ([1]; 1000 ppm): 14 mm
inhibition halo diameter ([2]; 125 ppm): 0 mm
inhibition halo diameter ([2]; 250 ppm): 0 mm
inhibition halo diameter ([2]; 500 ppm): 0 mm
inhibition halo diameter ([2]; 1000 ppm): 0 mm
inhibition halo diameter ([3]; 125 ppm): 0 mm
inhibition halo diameter ([3]; 250 ppm): 7 mm
inhibition halo diameter ([3]; 500 ppm): 8 mm
inhibition halo diameter ([3]; 1000 ppm): 10 mm
inhibition halo diameter ([4]; 125 ppm): 0 mm
inhibition halo diameter ([4]; 250 ppm): 0 mm
inhibition halo diameter ([4]; 500 ppm): 0 mm
inhibition halo diameter ([4]; 1000 ppm): 0 mm
zone of inhibition at 125 ppm [5, 13]: 0 mm
zone of inhibition at 250 ppm [5, 13]: 0 mm
zone of inhibition at 500 ppm [5, 13]: 0 mm
zone of inhibition at 1000 ppm [5, 13]: 0 mm
inhibition halo diameter ([6]; 125 ppm): 0 mm
inhibition halo diameter ([6]; 250 ppm): 6 mm
inhibition halo diameter ([6]; 500 ppm): 7 mm
inhibition halo diameter ([6]; 1000 ppm): 10 mm
inhibition halo diameter ([7]; 125 ppm): 7 mm
inhibition halo diameter ([7]; 250 ppm): 8 mm
inhibition halo diameter ([7]; 500 ppm): 8 mm
inhibition halo diameter ([7]; 1000 ppm): 10 mm
inhibition halo diameter ([8]; 125 ppm): 8 mm
inhibition halo diameter ([8]; 250 ppm): 9 mm
inhibition halo diameter ([8]; 500 ppm): 10 mm
inhibition halo diameter ([8]; 1000 ppm): 12 mm
inhibition halo diameter ([9]; 125 ppm): 0 mm
inhibition halo diameter ([9]; 250 ppm): 0 mm
inhibition halo diameter ([9]; 500 ppm): 0 mm
inhibition halo diameter ([9]; 1000 ppm): 0 mm
inhibition halo diameter ([10]; 125 ppm): 0 mm
inhibition halo diameter ([10]; 250 ppm): 0 mm
inhibition halo diameter ([10]; 500 ppm): 0 mm
inhibition halo diameter ([10]; 1000 ppm): 0 mm

[Na+].[O-]c1ccccc1-c1ccccc1 [30% Na o-phenylphenate, Na o-phenylphenate]
inhibition halo diameter [4, 14]: 7 mm
inhibition halo diameter [4, 15]: 30 mm
inhibition halo diameter [4, 16]: 35 mm
inhibition halo diameter [4, 17]: 40 mm
inhibition halo diameter [5, 14]: 20 mm
inhibition halo diameter [5, 15]: 30 mm
inhibition halo diameter [5, 16]: 33 mm
inhibition halo diameter [5, 17]: 53 mm
inhibition halo diameter [11, 14]: 0 mm
inhibition halo diameter [11, 15]: 0 mm
inhibition halo diameter [11, 16]: 0 mm
inhibition halo diameter [11, 17]: 0 mm
inhibition halo diameter [12, 14]: 0 mm
inhibition halo diameter [12, 15]: 10 mm
inhibition halo diameter [12, 16]: 20 mm
inhibition halo diameter [12, 17]: 35 mm

c1ccc(-c2ccccc2)cc1 [Biphenyl]
inhibition halo diameter [4, 16]: 0 mm
inhibition halo diameter [4, 17]: 0 mm
zone of inhibition at 4000 ppm [5, 13]: 7 mm
zone of inhibition at 6000 ppm [5, 13]: 8 mm
inhibition halo diameter [11, 16]: 0 mm
inhibition halo diameter [11, 17]: 0 mm
inhibition halo diameter [12, 16]: 0 mm
inhibition halo diameter [12, 17]: 0 mm

C=CCOC(Cn1ccnc1)c1ccc(Cl)cc1Cl (stereo not drawn) [Imazalil]
inhibition halo diameter ([4]; 1000 ppm of commercial product): 20 mm
inhibition halo diameter ([4]; 2000 ppm of commercial product): 23 mm
inhibition halo diameter ([4]; 4000 ppm of commercial product): 26 mm
zone of inhibition at 1000 µg/mL [5, 18]: 46 mm
zone of inhibition at 2000 µg/mL [5, 19]: 47 mm
zone of inhibition at 4000 µg/mL [5, 20]: 50 mm
inhibition halo diameter ([12]; 1000 ppm of commercial product): 20 mm
inhibition halo diameter ([12]; 2000 ppm of commercial product): 25 mm
inhibition halo diameter ([12]; 4000 ppm of commercial product): 31 mm

CCCN(CCOc1c(Cl)cc(Cl)cc1Cl)C(=O)n1ccnc1 [Prochloraz]
inhibition halo diameter ([4]; 1000 ppm of commercial product): 0 mm
inhibition halo diameter ([4]; 2000 ppm of commercial product): 0 mm
inhibition halo diameter ([4]; 4000 ppm of commercial product): 0 mm
zone of inhibition at 1000 µg/mL [5, 13]: 31 mm
zone of inhibition at 2000 µg/mL [5, 13]: 35 mm
zone of inhibition at 4000 µg/mL [5, 13]: 35 mm
inhibition halo diameter ([12]; 1000 ppm of commercial product): 8 mm
inhibition halo diameter ([12]; 2000 ppm of commercial product): 11 mm
inhibition halo diameter ([12]; 4000 ppm of commercial product): 12 mm

c1ccc2[nH]c(-c3cscn3)nc2c1 [Thiabendazole]
inhibition halo diameter ([4]; 1000 ppm of commercial product): 0 mm
inhibition halo diameter ([4]; 2000 ppm of commercial product): 0 mm
inhibition halo diameter ([4]; 4000 ppm of commercial product): 0 mm
zone of inhibition at 1000 µg/mL [5, 18]: > 40 mm
zone of inhibition at 2000 µg/mL [5, 19]: > 40 mm
zone of inhibition at 4000 µg/mL [5, 20]: > 40 mm
inhibition halo diameter ([12]; 1000 ppm of commercial product): 24 mm
inhibition halo diameter ([12]; 2000 ppm of commercial product): 26 mm
inhibition halo diameter ([12]; 4000 ppm of commercial product): 26 mm

Guazatine
inhibition halo diameter ([4]; 1000 ppm of commercial product): 27 mm
inhibition halo diameter ([4]; 2000 ppm of commercial product): 30 mm
inhibition halo diameter ([4]; 4000 ppm of commercial product): 35 mm
inhibition halo diameter ([5]; 1000 ppm of commercial product): 10 mm
inhibition halo diameter ([5]; 2000 ppm of commercial product): 12 mm
inhibition halo diameter ([5]; 4000 ppm of commercial product): 15 mm
inhibition halo diameter ([12]; 1000 ppm of commercial product): 25 mm
inhibition halo diameter ([12]; 2000 ppm of commercial product): 30 mm
inhibition halo diameter ([12]; 4000 ppm of commercial product): 35 mm
